Measured values published in US20250333394A1, “Tiparp Inhibitor Compounds” (AbbVie Inc., priority 2024, published 2025).

Key:
TIPARP GST-(TEV) = TIPARP GST-(TEV) (Homo sapiens (Human), UniProt Q7Z3E1); assay: TR-FRET binding assay, TIPARP; conditions: for IC50: TR-FRET, Probe 1, 2 hours incubation; for PARP1/TIPARP IC50 Ratio: ratio of PARP1 GST IC50 to TIPARP GST-(TEV) IC50
Description: The full-length cDNA encoding the human TIPARP (NP_001171647.1, UniProtKB-Q7Z3E1) of 657 amino acids was the template to generate the expression construct. […] The TIPARP fusion protein includes GST, glutathione S-transferase, a 26 kDa protein whose DNA sequence is frequently integrated into expression vectors for production of recombinant proteins. A […], was cloned into vector pFastBacTM 1 (Thermo Fisher Scientific) with an N-terminal GST tag followed by a TEV protease site to produce the TIPARP fusion protein, TIPARP GST-(TEV). TR-FRET assays were used to measure the binding of compounds to TIPARP and PARP1, and to characterize biochemical selectivity. Compound stock solutions (10 mM) were serially diluted in 3-fold increments in dimethyl sulfoxide (DMSO). Diluted compounds were dispensed (30 nL) into white ProxiPlate-384-well plates (PerkinElmer, Waltham, MA, USA) using an ECHO® 550 acoustic Labcyte dispenser (Beckman-Coulter Life Sciences, Indianapolis, IN, USA) to achieve a final starting concentration of 30 μM to 0.5 nM in the assay. This was followed by addition of 5 μL of 2× protein/probe mix (Table 2) made in assay buffer (Tris-HCl 50 mM pH 8.0; 5 mM MgCl2; 5 μM ZnCl2; 1 mM DTT (dithiothreitol); 0.15% BSA (bovine serum albumin) (w/v); and 0.01% TritonX-100 (w/v)) at final concentrations listed in Table 2. Subsequently, 5 μL of 2× antibody (Tb-labeled anti-GST antibody, Thermo Fisher Scientific, Waltham, MA, USA) in HEPES buffered saline was added to each well at a final concentration of 1 nM. The samples were then incubated for 2 hours under ambient conditions. Fluorescence was measured and TR-FR ET ratios were determined on an EnVision multimode plate reader (PerkinElmer) using a 520 nanometer (nm) excitation wavelength and collecting fluorescence emission at 495 nm. […] [table]

NCI-H1373 cells = assay: NCI-H1373 CellTiter-Glo cell assay for TIPARP inhibition; format: cell-based, human; conditions: Homo sapiens, NCI-H1373, 144 h; 6 days, 100 nM 10-Cl-BBQ in medium; read-out: NCI-H1373 CTG EC50
Procedure: The NCI-H1373 CellTiter-Glo® assay was used to determine cell numbers after TIPARP inhibition-induced cell cycle arrest, and enabled screening of compounds for cellular TIPARP inhibition potency.
Compound stock solutions (10 mM) were serially diluted in 3-fold increments in dimethyl sulfoxide. Sample aliquots (120 nL) were dispensed into Corning® 384-well Flat Clear Bottom White Polystyrene TC-treated Microplates (Corning Life Sciences, Corning, NY, USA) using an ECHO® 550 acoustic Labcyte dispenser (Beckman-Coulter Life Sciences, Indianapolis, IN, USA) to achieve final concentrations between 30 μM and 0.5 nM in the assay. This was followed by the addition of 40 μL of 1000 NCI-H1373 cells (ATCC®, Manassas, VA, USA) in complete growth medium RPMI 1640 growth medium (Thermo Fisher Scientific, Waltham, MA, USA) supplemented with 20 mg/L L-glutamate, 25 mM HEPES (4-(2-hydroxyethyl)-1-piperazineethanesulfonic acid), 10% (v/v) heat inactivated FBS (fetal bovine serum), 1% (w/v) penicillin-streptomycin, and 100 nM 10-Cl-BBQ (10-chloro-7H-benzimidazo[2,1-a]benz[de]isoquinolin-7-one, (Tocris, Minneapolis, MN, USA). Duplicate cell plates with 40 μL cells/well along with various concentrations of compounds were kept in Nunc™ Square BioAssay Dishes (Thermo Fisher Scientific) at 98% relative humidity in a 5% C02 incubator at 37° C. for 6 days. On day 7, plates were moved to ambient lab conditions for 10 minutes until the temperature equilibrated. Following equilibration, CellTiter-Glo® Luminescent Cell Viability Assay reagent (Promega™, Madison, WI, USA) was added (15 μL) to each well of the plates. After a 20 minutes incubation, luminescence was detected using a ViewLux™ microplate imager (PerkinElmer, Waltham, MA, USA). Data analysis was performed using GraphPad Prism (Dotmatics, Boston, MA, USA).

PARP1 GST = PARP1 GST (Homo sapiens (Human), UniProt P09874); assay: TR-FRET binding assay, PARP1; conditions: Probe 2, 2 hours incubation
Procedure: TR-FRET assays were used to measure the binding of compounds to TIPARP and PARP1, and to characterize biochemical selectivity. Compound stock solutions (10 mM) were serially diluted in 3-fold increments in dimethyl sulfoxide (DMSO). Diluted compounds were dispensed (30 nL) into white ProxiPlate-384-well plates (PerkinElmer, Waltham, MA, USA) using an ECHO® 550 acoustic Labcyte dispenser (Beckman-Coulter Life Sciences, Indianapolis, IN, USA) to achieve a final starting concentration of 30 μM to 0.5 nM in the assay. This was followed by addition of 5 μL of 2× protein/probe mix (Table 2) made in assay buffer (Tris-HCl 50 mM pH 8.0; 5 mM MgCl2; 5 μM ZnCl2; 1 mM DTT (dithiothreitol); 0.15% BSA (bovine serum albumin) (w/v); and 0.01% TritonX-100 (w/v)) at final concentrations listed in Table 2. Subsequently, 5 μL of 2× antibody (Tb-labeled anti-GST antibody, Thermo Fisher Scientific, Waltham, MA, USA) in HEPES buffered saline was added to each well at a final concentration of 1 nM. The samples were then incubated for 2 hours under ambient conditions. Fluorescence was measured and TR-FR ET ratios were determined on an EnVision multimode plate reader (PerkinElmer) using a 520 nanometer (nm) excitation wavelength and collecting fluorescence emission at 495 nm.

DLD-1 BRCA2 (−/−) cells = assay: CellTiter-Glo DLD-1 BRCA2 (−/−) cell assay for PARP1/2 inhibition; format: cell-based; conditions: Homo sapiens, 144 h, 6 days, read-out: DLD-1 BRCA2 (−/−) CTG EC50
Description: (§1) The DLD-1 BRCA2 (−/−) CellTiter-Glo® assay measured the synthetic lethality of PARP1/2 inhibitors and was used as a surrogate to allow measurement of activity of both PARP1 and PARP2 in cells. If PARP1 and PARP2 are inhibited and are trapped onto chromatin during DNA replication, there is replication fork stalling and accumulation of double strand breaks. In BR CA wild-type cells, the resulting double strand DNA breaks are repaired via homologous recombination. In cells with mutation of BRCA1 or BRCA2, homologous recombination repair of DNA double strand breaks is defective, and cell death occurs after PARP1/2 inhibitor treatment (Lord C J, Ashworth A. PARP inhibitors: synthetic lethality in the clinic. Science. 2017 Mar. 17; 355(6330):1152-1158). Testing compounds in viability assays with the DLD-1-BR CA 2 (−/−) and DLD-1 parent cell enabled assessment on PARP1/2-dependent (cytotoxicity in the BRCA2 (−/−) cells only) vs. non-selective cytotoxicity in both cell lines.
(§2) Compound stock solutions (10 mM) were serially diluted in 3-fold increments in dimethyl sulfoxide (DMSO). Sample aliquots (120 nL) were dispensed into Corning® 384-well Flat Clear Bottom White Polystyrene TC-treated Microplates (Corning Life Sciences, Corning, NY, USA) using an ECHO® 550 acoustic Labcyte dispenser (Beckman-Coulter Life Sciences, Indianapolis, IN, USA) to achieve concentrations between 30 μM and 0.5 nM in the assay. In the assay, 40 μL of 500 DLD-1 parent cells (HORIZON® Therapeutics, Deerfield, IL, USA) or 40 μL of 1200 DLD-1-BRCA2 (−/−) cells (HORIZON Therapeutics) in complete growth medium containing RPMI 1640 growth medium (ThermoFisher Scientific, Waltham, MA, USA) supplemented with 20 mg/L L-glutamate, 25 mM HEPES (4-(2-hydroxyethyl)-1-piperazineethanesulfonic acid), 10% (v/v) heat inactivated FBS (fetal bovine serum), and 1% (w/v) Penicillin-Streptomycin were added.
(§3) Duplicate cell plates with 40 μL cells/well along with various concentrations of compounds were kept in Nunc™ Square BioAssay Dishes (Thermo Fisher Scientific) at 98% relative humidity in a 5% CO2 incubator at 37° C. for 6 days. On day 7, plates were moved to ambient lab conditions for 10 minutes until the temperature equilibrated. Following equilibration, CellTiter-Glo® Luminescent Cell Viability Assay reagent (Promega™, Madison, WI, USA) was added (15 μL) to each well of the plates. After a 20 minutes incubation, luminescence was detected using a ViewLux™ microplate imager (PerkinElmer, Waltham, MA, USA). Data analysis was performed using GraphPad Prism (Dotmatics, Boston, MA, USA).

DLD-1 parent cells = assay: CellTiter-Glo DLD-1 parent cell assay; format: cell-based; conditions: Homo sapiens, 144 h, 6 days, read-out: DLD-1 CTG EC50
Description: as §1, §2, §3

TIPARP GST-(TEV), sequence (Q7Z3E1 441-657): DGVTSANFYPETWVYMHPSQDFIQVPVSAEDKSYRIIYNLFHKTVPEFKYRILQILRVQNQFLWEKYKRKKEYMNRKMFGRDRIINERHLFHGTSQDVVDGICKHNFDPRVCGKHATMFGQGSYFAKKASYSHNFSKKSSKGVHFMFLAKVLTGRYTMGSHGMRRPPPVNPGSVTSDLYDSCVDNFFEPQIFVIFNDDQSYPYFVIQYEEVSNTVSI
PARP1 GST, sequence (P09874 whole entry): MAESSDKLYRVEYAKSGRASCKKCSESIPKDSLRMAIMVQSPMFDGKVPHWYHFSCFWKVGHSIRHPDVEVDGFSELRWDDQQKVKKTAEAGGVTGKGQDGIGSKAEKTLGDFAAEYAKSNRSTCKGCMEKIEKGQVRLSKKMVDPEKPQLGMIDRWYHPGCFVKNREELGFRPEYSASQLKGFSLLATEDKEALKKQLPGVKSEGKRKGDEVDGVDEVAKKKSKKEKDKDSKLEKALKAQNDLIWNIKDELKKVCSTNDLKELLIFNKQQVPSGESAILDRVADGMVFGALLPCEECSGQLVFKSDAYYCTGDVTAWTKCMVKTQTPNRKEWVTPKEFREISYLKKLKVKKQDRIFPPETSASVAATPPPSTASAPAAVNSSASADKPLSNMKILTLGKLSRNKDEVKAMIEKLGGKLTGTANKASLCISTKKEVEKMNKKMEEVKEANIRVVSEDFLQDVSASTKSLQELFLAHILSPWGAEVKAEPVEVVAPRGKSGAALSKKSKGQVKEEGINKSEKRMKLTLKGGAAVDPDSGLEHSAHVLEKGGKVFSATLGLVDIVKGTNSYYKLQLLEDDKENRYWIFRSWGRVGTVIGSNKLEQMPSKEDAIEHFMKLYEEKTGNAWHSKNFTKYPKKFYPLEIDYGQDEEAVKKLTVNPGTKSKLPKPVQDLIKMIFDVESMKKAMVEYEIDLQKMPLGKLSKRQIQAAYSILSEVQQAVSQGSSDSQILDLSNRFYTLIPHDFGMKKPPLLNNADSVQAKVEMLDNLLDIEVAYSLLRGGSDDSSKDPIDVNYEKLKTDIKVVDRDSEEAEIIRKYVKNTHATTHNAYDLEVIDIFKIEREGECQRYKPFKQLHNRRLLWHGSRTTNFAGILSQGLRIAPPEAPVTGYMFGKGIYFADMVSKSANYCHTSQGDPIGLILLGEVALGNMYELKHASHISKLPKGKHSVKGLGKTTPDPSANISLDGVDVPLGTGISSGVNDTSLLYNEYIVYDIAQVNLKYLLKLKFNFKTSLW

SMILES	IC50 (TIPARP GST-(TEV)) [µM]	PARP1/TIPARP IC50 Ratio (TIPARP GST-(TEV))	EC50 (NCI-H1373 cells) [µM]	IC50 (PARP1 GST) [µM]	EC50 (DLD-1 BRCA2 (−/−) cells) [µM]	EC50 (DLD-1 parent cells) [µM]
C[C@@H]1CN(C(=O)[C@H]2C[C@@H](Cc3c[nH]c(=O)c(C(F)(F)F)c3)C2)CCN1c1ncc(C(F)(F)F)cn1 [Example 15, 5-{[(1S,3s)-3-{(3R)-3-methyl-4-[5-(trifluoromethyl)pyrimidin-2-yl]piperazine-1-carbonyl}cyclobutyl]methyl}-3-(trifluoromethyl)pyridin-2(1H)-one]	0.00215	194	0.0148	0.417	1.38	10.3
C[C@H]1CN(c2ncc(C(C)(C)O)cn2)CCN1C(=O)[C@H]1C[C@@H](Cc2c[nH]c(=O)c(C(F)(F)F)c2)C1 [Example 21, 5-{[(1R,3s)-3-{(2S)-4-[5-(2-hydroxypropan-2-yl)pyrimidin-2-yl]-2-methylpiperazine-1-carbonyl}cyclobutyl]methyl}-3-(trifluoromethyl)pyridin-2(1H)-one]	0.0129	25.7	0.16	0.331	1.06	> 30
C[C@H]1CN(C(=O)[C@H]2C[C@@H](Cc3c[nH]c(=O)c(C(F)(F)F)c3)C2)CCN1c1ncc(C(F)(F)F)cn1 [Example 16, 5-{[(1R,3s)-3-{(3S)-3-methyl-4-[5-(trifluoromethyl)pyrimidin-2-yl]piperazine-1-carbonyl}cyclobutyl]methyl}-3-(trifluoromethyl)pyridin-2(1H)-one]	0.00334	347	0.0191	1.16	0.997	15.2
C[C@H]1CN(c2ncc(C(C)(C)O)cn2)CCN1C(=O)[C@H]1C[C@@H](c2c[nH]c(=O)c(C(F)(F)F)c2)C1 [Example 11, 5-[(1R,3s)-3-{(2S)-4-[5-(2-hydroxypropan-2-yl)pyrimidin-2-yl]-2-methylpiperazine-1-carbonyl}cyclobutyl]-3-(trifluoromethyl)pyridin-2(1H)-one]	0.0109	56.5	0.337	0.616	1.18	16
C[C@@H]1CN(C(=O)[C@H]2C[C@@H](c3c[nH]c(=O)c(C(F)(F)F)c3)C2)CCN1c1ncc(C(C)(C)O)cn1 [Example 7, 5-[(1S,3s)-3-{(3R)-4-[5-(2-hydroxypropan-2-yl)pyrimidin-2-yl]-3-methylpiperazine-1-carbonyl}cyclobutyl]-3-(trifluoromethyl)pyridin-2(1H)-one]	0.00379	417	0.0717	1.58	17.2	> 30
C[C@@H]1CN(c2ncc(C(C)(C)O)cn2)CCN1C(=O)[C@H]1C[C@@H](Cc2c[nH]c(=O)c(C(F)(F)F)c2)C1 [Example 19, 5-{[(1S,3s)-3-{(2R)-4-[5-(2-hydroxypropan-2-yl)pyrimidin-2-yl]-2-methylpiperazine-1-carbonyl}cyclobutyl]methyl}-3-(trifluoromethyl)pyridin-2(1H)-one]	0.00579	1170	0.0712	6.75	18.3	> 30
C[C@H]1CN(c2ncc(C(F)(F)F)cn2)CCN1C(=O)[C@H]1C[C@@H](c2c[nH]c(=O)c(C(F)(F)F)c2)C1 [Example 6, 5-[(1R,3s)-3-{(2S)-2-methyl-4-[5-(trifluoromethyl)pyrimidin-2-yl]piperazine-1-carbonyl}cyclobutyl]-3-(trifluoromethyl)pyridin-2(1H)-one]	0.00343	82.5	0.0454	0.283	1.13	14.4
